Assay results published in patent US20260085053A1, “BENZOFURAN DERIVATIVES AS SIK INHIBITORS AND THE USE THEREOF” (BEONE MEDICINES I GMBH, priority 2023, published 2026).

Columns and labels:
[1] = target: T1, SIK1 kinase (aa1-303, Thermo Fisher) (Homo sapiens, UniProt P57059); test: Biochemical activities determination for SIK1 protein (TR-FRET); conditions: 110 uM ATP, 0.5 μM STK1 substrate
T1 construct: SIK1 kinase (aa1-303, Thermo Fisher); purchased Thermo Fisher
Protocol: 1. Biochemical Activities Determination for SIK1 Protein
(§1) Compounds were tested for inhibition of SIK1 kinase (aa1-303, Thermo Fisher) in assays based on the time-resolved fluorescence-resonance energy transfer (TR-FRET) methodology. The assays were carried out in 384-well low volume white plates in a reaction mixture containing SIK1 kinase, 110 uM ATP, 0.5 μM STK1 substrate and 0-10 μM compound in buffer containing 25 mM Tris, 0.01% Trition X-100, 0.5 mM EGTA, 5 mM MgCl2, 2.5 mM DTT, pH=7.5. The kinase was incubated with compounds for 60 minutes at room temperature and the reaction was initiated by the addition of ATP and STK1 substrate. After reaction at room temperature for 180 minutes, an equal volume of stop/detection solution was added according to the manufacture's instruction (CisBio Bioassays). The stop/detection solution contained STK Antibody-Cryptate and XL665-conjugated streptavidin (Cat: 62ST1PEC, Cisbio) in Detection Buffer (Cat: 62SDBRDF, Cisbio). Plates were sealed and incubated at room temperature for overnight, and the TR-FRET signals (ratio of fluorescence emission at 665 nm over emission at 620 nm with excitation at 337 nm wavelength) were recorded on a PHERAstar FS plate reader (BMG Labtech). Phosphorylation of STK1 substrate led to the binding of STK Antibody-Cryptate to the biotinylated SIK1 substrate, which places fluorescent donor (Eu^3+ crypate) in close proximity to the accepter (Streptavidin-XL665), thus resulting in a high degree of fluorescence resonance energy transfer from the donor fluorophore (at 620 nm) to the acceptor fluorophore (at 665 nm). […] The IC50 for each compound was derived from fitting the data to the four-parameter logistic equation by Dotmatics.

[2] = target: T2, SIK2 kinase (full length, Thermo Fisher) (Homo sapiens, UniProt Q9H0K1); test: Biochemical activities determination for SIK2 protein (TR-FRET); conditions: 80 uM ATP, 0.5 μM substrate
T2 construct: SIK2 kinase (full length, Thermo Fisher); purchased Thermo Fisher
T2 sequence (Q9H0K1 whole entry): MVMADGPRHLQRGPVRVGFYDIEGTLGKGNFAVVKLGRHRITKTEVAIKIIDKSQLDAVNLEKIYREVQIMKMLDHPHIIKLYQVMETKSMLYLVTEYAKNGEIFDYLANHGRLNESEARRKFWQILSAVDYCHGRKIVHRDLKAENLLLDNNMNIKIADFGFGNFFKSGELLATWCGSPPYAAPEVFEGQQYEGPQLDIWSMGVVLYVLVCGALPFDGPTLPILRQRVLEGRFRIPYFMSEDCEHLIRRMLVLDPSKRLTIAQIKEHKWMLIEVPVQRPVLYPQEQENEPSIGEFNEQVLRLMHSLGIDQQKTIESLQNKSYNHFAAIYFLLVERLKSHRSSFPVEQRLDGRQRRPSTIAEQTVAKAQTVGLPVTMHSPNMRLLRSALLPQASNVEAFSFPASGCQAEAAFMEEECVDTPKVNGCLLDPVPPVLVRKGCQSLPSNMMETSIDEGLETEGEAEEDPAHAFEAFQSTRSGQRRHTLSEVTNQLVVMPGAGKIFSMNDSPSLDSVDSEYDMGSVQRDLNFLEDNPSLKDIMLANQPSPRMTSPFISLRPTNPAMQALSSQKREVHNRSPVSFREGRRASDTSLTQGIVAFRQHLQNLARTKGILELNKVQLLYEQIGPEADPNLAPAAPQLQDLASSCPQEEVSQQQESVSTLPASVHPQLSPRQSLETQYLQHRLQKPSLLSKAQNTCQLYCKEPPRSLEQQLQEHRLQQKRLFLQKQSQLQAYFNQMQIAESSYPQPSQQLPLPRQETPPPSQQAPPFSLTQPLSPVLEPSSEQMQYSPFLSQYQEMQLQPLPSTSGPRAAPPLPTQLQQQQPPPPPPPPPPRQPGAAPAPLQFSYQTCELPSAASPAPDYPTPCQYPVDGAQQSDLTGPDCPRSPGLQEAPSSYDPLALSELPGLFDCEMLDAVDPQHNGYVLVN
Protocol: 2. Biochemical Activities Determination for SIK2 Protein
as §1, with “of SIK2” for “of SIK1”, “kinase (full length,” for “kinase (aa1-303,”, “containing SIK2” for “containing SIK1”, “kinase, 80” for “kinase, 110”, “μM […]” for “μM STK1”, “biotinylated STK1” for “biotinylated SIK1”

[3] = target: T3, SIK3 kinase (aa59-365, Thermo Fisher) (Homo sapiens, UniProt Q9Y2K2); test: Biochemical activities determination for SIK3 protein (TR-FRET); conditions: 125 uM ATP, 0.5 μM STK1 substrate
T3 construct: SIK3 kinase (aa59-365, Thermo Fisher); purchased Thermo Fisher
T3 sequence (Q9Y2K2 59-365): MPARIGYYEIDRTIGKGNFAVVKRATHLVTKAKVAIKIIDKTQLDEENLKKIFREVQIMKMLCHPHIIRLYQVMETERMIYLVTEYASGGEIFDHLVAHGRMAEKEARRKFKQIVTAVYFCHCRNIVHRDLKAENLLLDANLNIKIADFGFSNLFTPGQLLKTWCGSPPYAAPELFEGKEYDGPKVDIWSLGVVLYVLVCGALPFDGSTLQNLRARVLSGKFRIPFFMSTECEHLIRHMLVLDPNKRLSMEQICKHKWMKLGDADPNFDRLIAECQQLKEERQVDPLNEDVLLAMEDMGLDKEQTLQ
Protocol: 3. Biochemical Activities Determination for SIK3 Protein
Compounds were tested for inhibition of SIK3 kinase (aa59-365, Thermo Fisher) in assays based on the time-resolved fluorescence-resonance energy transfer (TR-FRET) methodology. The assays were carried out in 384-well low volume white plates in a reaction mixture containing SIK3 kinase, 125 uM ATP, 0.5 μM STK1 substrate and 0-10 μM compound in buffer containing 25 mM Tris, 0.01% Trition X-100, 0.5 mM EGTA, 5 mM MgCl2, 2.5 mM DTT, PH=7.5. The kinase was incubated with compound for 60 minutes at room temperature and the reaction was initiated by the addition of ATP and STK1 substrate. After reaction at room temperature for 180 minutes, an equal volume of stop/detection solution was added according to the manufacture's instruction (CisBio Bioassays). The stop/detection solution contained STK Antibody-Cryptate and XL665-conjugated streptavidin (Cat: 62ST1PEC, Cisbio) in Detection Buffer (Cat: 62SDBRDF, Cisbio). Plates were sealed and incubated at room temperature for overnight, and the TR-FRET signals (ratio of fluorescence emission at 665 nm over emission at 620 nm with excitation at 337 nm wavelength) were recorded on a PHERAstar FS plate reader (BMG Labtech). Phosphorylation of STK1 substrate led to the binding of STK Antibody-Cryptate to the biotinylated STK1 substrate, which places fluorescent donor (Eu^3+ crypate) in close proximity to the accepter (Streptavidin-XL665), thus resulting in a high degree of fluorescence resonance energy transfer from the donor fluorophore (at 620 nm) to the acceptor fluorophore (at 665 nm). […] The IC50 for each compound was derived from fitting the data to the four-parameter logistic equation by Dotmatics.

T1 sequence (P57059 1-303): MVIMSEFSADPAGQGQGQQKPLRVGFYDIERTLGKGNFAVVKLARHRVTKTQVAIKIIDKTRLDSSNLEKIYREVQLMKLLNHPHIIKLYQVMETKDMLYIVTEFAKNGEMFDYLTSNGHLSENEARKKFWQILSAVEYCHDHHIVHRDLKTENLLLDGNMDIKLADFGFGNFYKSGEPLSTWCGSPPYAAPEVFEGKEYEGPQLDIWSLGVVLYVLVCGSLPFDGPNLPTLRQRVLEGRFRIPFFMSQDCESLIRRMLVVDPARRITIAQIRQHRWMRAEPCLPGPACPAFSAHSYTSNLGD

SMILES	IC50 [1] [nM]	IC50 [2] [nM]	IC50 [3] [nM]
COc1cc(-c2coc3cc(-c4cnn(C)c4)ccc23)cc2c1C(=O)N(CC(F)(F)F)[C@@H](C)C2 [Compound 29A, (S)-8-methoxy-3-methyl-6-(6-(1-methyl-1H-pyrazol-4-yl)benzofuran-3-yl)-2-(2,2,2-trifluoroethyl)-3,4-dihydroisoquinolin-1 (2H)-one]	216	15	42
COc1cc(-c2coc3cc(-c4cnn(C)c4)ccc23)cc2c1C(=O)N(CC(F)(F)F)[C@H](C)C2 [Compound 29B, (R)-8-methoxy-3-methyl-6-(6-(1-methyl-1H-pyrazol-4-yl)benzofuran-3-yl)-2-(2,2,2-trifluoroethyl)-3,4-dihydroisoquinolin-1 (2H)-one]	5980	178	374
COc1cc(-c2coc3cc(-c4cnn(C)c4)ccc23)cc(OC)c1-c1nnc(C2CC2)o1 [Compound 35, 2-cyclopropyl-5-(2,6-dimethoxy-4-(6-(1-methyl-1H-pyrazol-4-yl)benzofuran-3-yl)phenyl)-1,3,4-oxadiazole]	2080	132	255
COc1cc(-c2coc3cc(-c4cnn(C5CN(C)C5)c4)ccc23)cc(OC(F)F)c1C(=O)N[C@@H]1C[C@@H]1F [Compound 37, 2-(difluoromethoxy)-N-((1R,2S)-2-fluorocyclopropyl)-6-methoxy-4-(6-(1-(1-methylazetidin-3-yl)-1H-pyrazol-4-yl)benzofuran-3-yl)benzamide]	25	1.4	4.2
COc1cc(-c2coc3cc(-c4cnn(C5CCN(C)C5)c4)ccc23)cc(OC(F)F)c1C(=O)N[C@@H]1C[C@@H]1F (stereo partly drawn) [Compound 38, 2-(difluoromethoxy)-N-((1R,2S)-2-fluorocyclopropyl)-6-methoxy-4-(6-(1-(1-methylpyrrolidin-3-yl)-1H-pyrazol-4-yl)benzofuran-3-yl)benzamide]	24	1.7	3.9
COc1cc(-c2coc3cc(-c4cnn(C5CCN(C)CC5)c4)ccc23)cc(OC(F)F)c1C(=O)N[C@@H]1C[C@@H]1F [Compound 39, 2-(difluoromethoxy)-N-((1R,2S)-2-fluorocyclopropyl)-6-methoxy-4-(6-(1-(1-methylpiperidin-4-yl)-1H-pyrazol-4-yl)benzofuran-3-yl)benzamide]	25	1.7	4.1
O=C1c2c(cc(-c3coc4cc(-c5cnn(C6CCOCC6)c5)ccc34)cc2OC(F)F)CCN1CC(F)(F)F [Compound 41, 8-(difluoromethoxy)-6-(6-(1-(tetrahydro-2H-pyran-4-yl)-1H-pyrazol-4-yl)benzofuran-3-yl)-2-(2,2,2-trifluoroethyl)-3,4-dihydroisoquinolin-1 (2H)-one]	1710	33	69

More lines, in order of falling IC50 [1], values ahead:

IC50 [1] [nM]	IC50 [2] [nM]	IC50 [3] [nM]	SMILES
9100	82	156	COc1cc(-c2coc3cc(-c4cnn(C)c4)ccc23)cc2c1C(=O)N(CC(F)(F)F)CC2(C)C [Compound 33, 8-methoxy-4,4-dimethyl-6-(6-(1-methyl-1H-pyrazol-4-yl)benzofuran-3-yl)-2-(2,2,2-trifluoroethyl)-3,4-dihydroisoquinolin-1 (2H)-one]
5450	673	882	COc1cc(-c2coc3cc(-c4cnn(C)c4)ccc23)cc2c1C(=O)N(Cc1ccccc1)CC2 [Compound 31, 2-benzyl-8-methoxy-6-(6-(1-methyl-1H-pyrazol-4-yl)benzofuran-3-yl)-3,4-dihydroisoquinolin-1 (2H)-one]
3940	140	281	COc1cc(-c2coc3cc(-c4cnn(C)c4)ccc23)cc2c1C(=O)N(CC(F)(F)F)CCO2 [Compound 28, 6-methoxy-8-(6-(1-methyl-1H-pyrazol-4-yl)benzofuran-3-yl)-4-(2,2,2-trifluoroethyl)-3,4-dihydrobenzo[f][1,4]oxazepin-5 (2H)-one]
2680	239	420	COc1cc(-c2coc3cc(-c4cnn(C)c4)ccc23)cc(OC)c1-c1nnc(C)o1 [Compound 34, 2-(2,6-dimethoxy-4-(6-(1-methyl-1H-pyrazol-4-yl)benzofuran-3-yl)phenyl)-5-methyl-1,3,4-oxadiazole]
2610	531	1110	COc1cc(-c2coc3cc(-c4cnn(C)c4)ccc23)cc2c1C(=O)N(Cc1ccncc1)CC2 [Compound 30, 8-methoxy-6-(6-(1-methyl-1H-pyrazol-4-yl)benzofuran-3-yl)-2-(pyridin-4-ylmethyl)-3,4-dihydroisoquinolin-1 (2H)-one]
2090	144	305	CCc1nnc(-c2c(OC)cc(-c3coc4cc(-c5cnn(C)c5)ccc34)cc2OC)o1 [Compound 36, 2-(2,6-dimethoxy-4-(6-(1-methyl-1H-pyrazol-4-yl)benzofuran-3-yl)phenyl)-5-ethyl-1,3,4-oxadiazole]
1880	96	829	Cn1cc(-c2ccc3c(-c4ccc(C#N)cc4)coc3c2)cn1 [Compound 32, 4-(6-(1-methyl-1H-pyrazol-4-yl)benzofuran-3-yl)benzonitrile]
1590	25	115	O=C1c2c(cc(-c3coc4cc(-c5cnn(C6CNC6)c5)ccc34)cc2OC(F)F)CCN1CC(F)(F)F [Compound 42, 6-(6-(1-(azetidin-3-yl)-1H-pyrazol-4-yl)benzofuran-3-yl)-8-(difluoromethoxy)-2-(2,2,2-trifluoroethyl)-3,4-dihydroisoquinolin-1 (2H)-one]
537	14	31	O=C1c2c(cc(-c3coc4cc(-c5cnn(C6CCOC6)c5)ccc34)cc2OC(F)F)CCN1CC(F)(F)F (stereo not drawn) [Compound 40, 8-(difluoromethoxy)-6-(6-(1-(tetrahydrofuran-3-yl)-1H-pyrazol-4-yl)benzofuran-3-yl)-2-(2,2,2-trifluoroethyl)-3,4-dihydroisoquinolin-1 (2H)-one]
